Experiments:
E. coli = assay: Bactericidal assay, E. coli colony count after 30 min incubation with peptide and CuSO4; assay type: cell-based
Description: Bovine TAP was synthesized and purified to a single HPLC peak. Bactericidal assay was carried out by growing wild-type E. coli in tryptic soy broth (TSB) until the OD600 reached 0.2. Cells were then diluted in 50 μl 10 mM NaPO4 buffer, pH 7.4, to 4×10^5 cells/ml. […] Five Al samples were plated on L-agar, and the plates were incubated at 37° C. overnight. Colonies were then counted.

Pseudomonas aeruginosa = assay: Bactericidal assay, Pseudomonas strain from a cystic fibrosis patient, with TAP, NaCl and CuSO4; assay type: cell-based
Description: Bovine TAP of 38 amino acids was chemically synthesized by the method of Duclohier ((1989) Biophys. J. 5:1017-1021), and purified to a single peak by HPLC. Bactericidal assay was carried out by growing a wild-type Pseudomonas strain obtained from a cystic fibrosis patient in TSB until the OD600 reached 0.2. Cells were then diluted in 50 μl 10 mM NaPO4 buffer, pH 7.4, to 4×10^5 cells/ml. […] TAP, varying concentrations of NaCl, and 0.1 mM CuS04 were added, and the mixtures were incubated for 30 minutes at 37° C. Five μl samples were taken and plated on L-agar, and the plates were incubated at 37° C. overnight. Colonies were then counted.

[1] = NaCl 0 mM, TAP 0 μg/ml, CU 0 mM as printed (second such line)
[2] = NaCl 15 mM, TAP 0 μg/ml, CU 0.1 mM
[3] = NaCl 25 mM, TAP 0 μg/ml, CU 0.1 mM
[4] = NaCl 50 mM, TAP 0 μg/ml, CU 0.1 mM
[5] = NaCl 75 mM, TAP 0 μg/ml, CU 0.1 mM
[6] = peptide 10 ug/ml, CuSO4 0 mM, 30 min 37 C
[7] = peptide 10 ug/ml, CuSO4 0.01 mM, 30 min 37 C
[8] = peptide 10 ug/ml, CuSO4 0.1 mM, 30 min 37 C
[9] = NaCl 15 mM, TAP 10 μg/ml, CU 0.1 mM
[10] = NaCl 25 mM, TAP 10 μg/ml, CU 0.1 mM
[11] = NaCl 50 mM, TAP 10 μg/ml, CU 0.1 mM
[12] = NaCl 75 mM, TAP 10 μg/ml, CU 0.1 mM

`O=S(=O)([O-])[O-].[Cu+2]` [CuSO4, copper sulfate (cupric sulfate)] was tested. Which “% SURVIVAL” value (E. coli; No Peptide, CuSO4 0.01 mM) did it give?
The value was 62%.

What about the “% SURVIVAL” value (E. coli; No Peptide, CuSO4 0.1 mM) of the same compound?
Its value is 22%.

What about the “% SURVIVAL” value (E. coli; No Peptide, CuSO4 1 mM) of the same compound?
The value was 16%.

What about the “% SURVIVAL” value (E. coli; No Peptide, CuSO4 10 mM) of the same compound?
Its value is 7%.

What about the “# COLONIES” value (E. coli; No Peptides, CuSO4 0.01 mM) of the same compound?
The value was 1776.

What about the “# COLONIES” value (E. coli; No Peptides, CuSO4 0.1 mM) of the same compound?
Its value is 640.

And the “# COLONIES” value (E. coli; No Peptides, CuSO4 1 mM)?
The value was 443.

What about the “# COLONIES” value (E. coli; No Peptides, CuSO4 10 mM) of the same compound?
Its value is 211.

What about the “# COLONIES” value (Pseudomonas aeruginosa; [1]) of the same compound?
Its value is 534.

And the “% SURVIVAL” value (Pseudomonas aeruginosa; [1])?
The value was 35%.

What about the “# COLONIES” value (Pseudomonas aeruginosa; [2]) of the same compound?
The value was 580.

What about the “% SURVIVAL” value (Pseudomonas aeruginosa; [2]) of the same compound?
The value was 39%.

And the “# COLONIES” value (Pseudomonas aeruginosa; [3])?
Its value is 513.

And the “% SURVIVAL” value (Pseudomonas aeruginosa; [3])?
The value was 34%.

And the “# COLONIES” value (Pseudomonas aeruginosa; [4])?
The value was 696.

What about the “% SURVIVAL” value (Pseudomonas aeruginosa; [4]) of the same compound?
Its value is 46%.

And the “# COLONIES” value (Pseudomonas aeruginosa; [5])?
Its value is 796.

What about the “% SURVIVAL” value (Pseudomonas aeruginosa; [5]) of the same compound?
Its value is 53%.

Which results are given for “Tracheal Antimicrobial Peptide (NPVSCVRNKGICVPIRCPGSMKQIGTCVGRAVKCCRKK; UniProt P25068 27-64, looked up) [TAP, airway beta-defensin; bovine TAP of 38 amino acids, chemically synthesized and purified to a single HPLC peak]”?
% SURVIVAL (E. coli; TAP 1 ug/ml, CuSO4 0 mM): 40%; % SURVIVAL (E. coli; TAP 1 ug/ml, CuSO4 0.01 mM): 8%; % SURVIVAL (E. coli; TAP 1 ug/ml, CuSO4 0.1 mM): 2%; # COLONIES (E. coli; peptide 10 ug/ml, Cu 0 mM): 119; # COLONIES (E. coli; peptide 10 ug/ml, Cu 0.01 mM): 106; # COLONIES (E. coli; peptide 10 ug/ml, Cu 0.1 mM): 32; % SURVIVAL (E. coli; [6]): 9%; % SURVIVAL (E. coli; [7]): 8%; % SURVIVAL (E. coli; [8]): 2%; # COLONIES (Pseudomonas aeruginosa; [9]): 233; % SURVIVAL (Pseudomonas aeruginosa; [9]): 15%; # COLONIES (Pseudomonas aeruginosa; [10]): 89; % SURVIVAL (Pseudomonas aeruginosa; [10]): 6%; # COLONIES (Pseudomonas aeruginosa; [11]): 242; % SURVIVAL (Pseudomonas aeruginosa; [11]): 16%; # COLONIES (Pseudomonas aeruginosa; [12]): 363; % SURVIVAL (Pseudomonas aeruginosa; [12]): 24%; killing of Pseudomonas by the combination of copper ions and TAP versus TAP alone (Pseudomonas aeruginosa; copper 0.1 mM, increasing NaCl concentrations): more effective than TAP alone

How did the “effect of CuSO4 on the antimicrobial activity of the peptide” value (E. coli; 0.01 to 0.1 mM CuS04) turn out when magainin was run?
The value was “enhanced the antimicrobial activity”.

What about the “# COLONIES” value (E. coli; peptide 10 ug/ml, Cu 0 mM) of the same compound?
Its value is 1895.

And the “# COLONIES” value (E. coli; peptide 10 ug/ml, Cu 0.01 mM)?
Its value is 1654.

What about the “# COLONIES” value (E. coli; peptide 10 ug/ml, Cu 0.1 mM) of the same compound?
The value was 975.

And the “% SURVIVAL” value (E. coli; [6])?
The value was 80%.

What about the “% SURVIVAL” value (E. coli; [7]) of the same compound?
The value was 70%.

What about the “% SURVIVAL” value (E. coli; [8]) of the same compound?
Its value is 41%.
